Molecules are shown by their SMILES. “And” between values parts separate entries of the source, which are not always exact repeats. Equal values may be shown once. Toxic doses and inconclusive results are not listed.

The assay deals with BDF1 mice, P388 leukemia ip, median survival T/C. As to the kind of experiment: NCI In Vivo Anticancer Drug Screen. Data for tumor model P388 Leukemia (intraperitoneal) in B6D2F1 (BDF1) mice. The settings on record: endpoint: median survival time, higher = longer survival. Summed up:
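Steps: implant the tumour, treat one group with compound and another with vehicle, record survival, then divide treated by control.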

Setting [1] is: dose: 100.0 mg/kg/injection, schedule: Q04DX003 (ip), vehicle: Klucel (hydroxypropylcellulose) (HPC).
[2] abbreviates: dose: 200.0 mg/kg/injection, schedule: Q04DX003 (ip), vehicle: Klucel (hydroxypropylcellulose) (HPC).
The mark [3] stands for this setting: dose: 400.0 mg/kg/injection, schedule: Q04DX003 (ip), vehicle: Klucel (hydroxypropylcellulose) (HPC).
[4] abbreviates: dose: 50.0 mg/kg/injection, schedule: Q01DX009 (ip), vehicle: saline.
The mark [5] stands for this setting: dose: 100.0 mg/kg/injection, schedule: Q01DX009 (ip), vehicle: saline.
Where [6] appears, read: dose: 100.0 mg/kg/injection, schedule: Q04DX003 (ip), vehicle: saline with Tween-80.
[7] abbreviates: dose: 200.0 mg/kg/injection, schedule: Q04DX003 (ip), vehicle: saline with Tween-80.
Where [8] appears, read: dose: 400.0 mg/kg/injection, schedule: Q04DX003 (ip), vehicle: saline with Tween-80.
The mark [9] stands for this setting: dose: 25.0 mg/kg/injection, schedule: Q01DX009 (ip), vehicle: saline with Tween-80.
The mark [10] stands for this setting: dose: 50.0 mg/kg/injection, schedule: Q01DX009 (ip), vehicle: saline with Tween-80.
The mark [11] stands for this setting: dose: 100.0 mg/kg/injection, schedule: Q01DX009 (ip), vehicle: saline with Tween-80.
Setting [12] is: dose: 200.0 mg/kg/injection, schedule: Q01DX009 (ip), vehicle: saline with Tween-80.
[13] abbreviates: dose: 25.0 mg/kg/injection, schedule: Q01DX009 (ip), vehicle: saline.

`O=[N+]([O-])c1ccc(/C=C/c2ncccn2)o1`: the T/C reads like this: under setting [1], 100 % of control; under setting [2], 100 % of control; under setting [3], 100 % of control.
On to `CCB(CC)OCC1OB(CC)OC1C1OB(CC)OC1COB(CC)CC` (configuration not stated), for which the T/C reads like this: under setting [4], 99 % of control; under setting [5], 97 % of control; (dose: 200.0 mg/kg/injection, schedule: Q01DX009 (ip), vehicle: saline) 99 % of control.
Regarding `Cc1ccc(NC(=O)c2ccc(Cl)cc2)c(Br)c1`, the T/C was 100 % of control (dose: 100.0 mg/kg/injection, schedule: Q01DX001 (ip), vehicle: saline with Tween-80); 109 % of control (dose: 200.0 mg/kg/injection, schedule: Q01DX001 (ip), vehicle: saline with Tween-80); 100 % of control (dose: 400.0 mg/kg/injection, schedule: Q01DX001 (ip), vehicle: saline with Tween-80).
For `CN(C)c1ccc(CC2Cc3ccccc3C2=O)cc1` (configuration not stated), the T/C runs as follows: (dose: 100.0 mg/kg/injection, schedule: Q01DX009 (ip), vehicle: other) 104 % of control; under setting [6], 90 % of control; (dose: 200.0 mg/kg/injection, schedule: Q01DX009 (ip), vehicle: other) 108 % of control; under setting [7], 100 % of control; under setting [8], 95 % of control.
For the compound `Cc1[o+]c(C)c2c(c1C)-c1ccccc1C2=O`, the T/C is 104 % of control (dose: 6.25 mg/kg/injection, schedule: Q01DX009 (ip), vehicle: saline with Tween-80); 113 % of control (dose: 12.5 mg/kg/injection, schedule: Q01DX009 (ip), vehicle: saline with Tween-80); 98 % of control under setting [9]; 109 % of control (dose: 25.0 mg/kg/injection, schedule: Q04DX003 (ip), vehicle: saline with Tween-80); 106 % of control under setting [10]; 120 % of control under setting [11]. Also, the T/C was 100 % of control under setting [6], 104 % of control under setting [12] and 116 % of control under setting [7].
In the case of `COc1cccc(CCCC(=O)O)c1`, the T/C was 95 % of control under setting [2] and 87 % of control under setting [3].
For `CSC1C(=O)Nc2c1cccc2[N+](=O)[O-]` (configuration not stated), the T/C reads like this: (dose: 50.0 mg/kg/injection, schedule: Q04DX002 (ip), vehicle: saline with Tween-80) 96 % of control; (dose: 100.0 mg/kg/injection, schedule: Q04DX002 (ip), vehicle: saline with Tween-80) 92 % of control; (dose: 200.0 mg/kg/injection, schedule: Q04DX002 (ip), vehicle: saline with Tween-80) 99 % of control.
Regarding `O=C(O)Cc1ccc(N=Nc2c(O)c(C(=O)O)cc3ccccc23)cc1`, the T/C under setting [1] is 111 % of control, the T/C under setting [2] is 111 % of control and the T/C under setting [3] was 100 % of control.
For the compound `Cc1ccc(NC(=O)N(CCCl)N=O)cc1C`, the T/C reads like this: (dose: 6.6 mg/kg/injection, schedule: Q04DX003 (ip), vehicle: saline with Tween-80) 159 % of control; (dose: 10.0 mg/kg/injection, schedule: Q04DX003 (ip), vehicle: saline with Tween-80) 209 % of control; (dose: 15.0 mg/kg/injection, schedule: Q04DX003 (ip), vehicle: saline with Tween-80) 204 % of control.
Consider `O=C(O)C(O)C(O)C(O)C(O)C(=O)O` (configuration not stated), for which the T/C was 100 % of control (dose: 50.0 mg/kg/injection, schedule: Q01DX010 (ip), vehicle: saline); 109 % of control (dose: 100.0 mg/kg/injection, schedule: Q01DX010 (ip), vehicle: saline); 100 % of control (dose: 200.0 mg/kg/injection, schedule: Q01DX010 (ip), vehicle: saline); 104 % of control (dose: 400.0 mg/kg/injection, schedule: Q01DX010 (ip), vehicle: saline); 88 % of control (dose: 600.0 mg/kg/injection, schedule: Q01DX010 (ip), vehicle: saline); 88 % of control (dose: 750.0 mg/kg/injection, schedule: Q01DX010 (ip), vehicle: saline).
As to `Cc1[nH]c(=O)[nH]c(=O)c1I`, the T/C is, setting by setting: under setting [10], 105 % of control; under setting [11], 99 % of control; under setting [12], 101 % of control.
As to `O=S1(=O)CCN(C2CCCCCCCCCCC2)CC1`, the T/C is 108 % of control (dose: 50.0 mg/kg/injection, schedule: Q01DX009 (ip), vehicle: Klucel (hydroxypropylcellulose) (HPC)); 106 % of control (dose: 100.0 mg/kg/injection, schedule: Q01DX009 (ip), vehicle: Klucel (hydroxypropylcellulose) (HPC)); 101 % of control (dose: 200.0 mg/kg/injection, schedule: Q01DX009 (ip), vehicle: Klucel (hydroxypropylcellulose) (HPC)).
Consider `O=C(C=C(C(F)(F)F)C(F)(F)F)c1ccc([N+](=O)[O-])cc1`, for which the T/C runs as follows: (dose: 1.56 mg/kg/injection, schedule: Q01DX009 (ip), vehicle: other) 100 % of control; (dose: 3.13 mg/kg/injection, schedule: Q01DX009 (ip), vehicle: other) 109 % of control; (dose: 6.25 mg/kg/injection, schedule: Q01DX009 (ip), vehicle: other) 104 % of control.
`O=C1NC(c2ccccc2)C(=O)N1CCN(CCCl)CCCl` (configuration not stated): the T/C was 114 % of control (dose: 1.56 mg/kg/injection, schedule: Q01DX009 (ip), vehicle: saline); 105 % of control (dose: 3.12 mg/kg/injection, schedule: Q01DX009 (ip), vehicle: saline); 201 % of control under setting [13].
For the compound `CC(N)Cc1ccc(N(C)C)cc1F` (configuration not stated), the T/C is, setting by setting: under setting [9], 96 % of control; under setting [13], 103 % of control; under setting [10], 96 % of control; under setting [4], 98 % of control and 107 % of control; under setting [11], 107 % of control; under setting [5], 96 % of control.
For the compound `O=S1(=O)CC2(N3CCOCC3)C3CCC(C3)C21` (configuration not stated), the T/C is, setting by setting: under setting [6], 111 % of control; under setting [8], 92 % of control.
In the case of `Nc1ccc(SCc2nc3cccc4c3n2CCC4)cc1`, the T/C reads like this: under setting [6], 91 % of control; under setting [7], 95 % of control; under setting [8], 95 % of control.
With `CC(=O)OC1CCC2(C)C(CC(=O)C(C)C23CCC2(C=COC2)O3)C1(C)C` (configuration not stated), the T/C by setting is: under setting [13], 113 % of control; under setting [4], 105 % of control; under setting [11], 109 % of control; under setting [5], 122 % of control; under setting [12], 102 % of control.
`CC(C)c1nsc2c1C(=O)NC(C(C)(C)C)N2` (configuration not stated): the T/C was 109 % of control under setting [10], 89 % of control under setting [11] and 95 % of control under setting [12].
Turning to `CN(C)Cc1ccc([N+](=O)[O-])cc1`, the T/C is, setting by setting: (dose: 12.5 mg/kg/injection, schedule: Q01DX009 (ip), vehicle: saline) 116 % of control; under setting [13], 119 % of control; under setting [4], 104 % of control; (dose: 50.0 mg/kg/injection, schedule: Q04DX003 (ip), vehicle: saline) 107 % of control; (dose: 100.0 mg/kg/injection, schedule: Q04DX003 (ip), vehicle: saline) 90 % of control; (dose: 200.0 mg/kg/injection, schedule: Q04DX003 (ip), vehicle: saline) 107 % of control.
